Consider four molecules from PMC6792352, “Limited Chemical Structural Diversity Found to Modulate Thyroid Hormone Receptor in the Tox21 Chemical Library” (Environmental Health Perspectives, 2019).

Series [1] concerns thyroid hormone receptor (endogenous TRα and TRβ). Briefly: GH3-TRE-Ag primary qHTS, luciferase reporter, agonist mode (TOX21_TR_LUC_GH3_Agonist, aeid 803). Format: cell-based, rat. To be noted: for AC50: read-out: GH3-TRE-Ag AC50; for GH3-TRE-Ag AC50 hitc: hit call from tcpl. For orientation: In qHTS, concentration-response curves come from the screen itself.
Series [2] has the same test system. Briefly: GH3-TRE-Antag primary qHTS, luciferase reporter, antagonist mode with 1 nM T3 (TOX21_TR_LUC_GH3_Antagonist, aeid 804). The class given is cell-based, rat. To be noted: antagonist mode, 1 nM T3; read-out: GH3-TRE-Antag AC50.
Series [3] in a line: Global cytotoxicity: eighteen Tox21 cell viability assays. Format: cell-based. To be noted: read-out: Global cytotoxicity AC50 median.
Series [4] has as its system Tox21 cell viability assays (different cell types). The series is described as above. Format: cell-based.
A short description of series [5]: GH3-TRE-Via cell viability, CellTiter-Fluor (TOX21_TR_LUC_GH3_Antagonist_viability, aeid 805). To be noted: rat.
Series [6] concerns thyroid hormone receptor (endogenous TRα and TRβ). Briefly: GH3-TRE-Ag-Followup confirmation (TOX21_TR_LUC_GH3_Agonist_Followup, aeid 2226). Format: cell-based, rat. To be noted: for AC50: confirmation, agonist mode, read-out: GH3-TRE-Ag-Followup AC50; for GH3-TRE-Ag-Followup hitc: hit call from tcpl.
Series [7] addresses T1, TRα ligand-binding domain (Homo sapiens, UniProt P10827).
T1 construct: the receptor LBDs expressed as glutathione S-transferase (GST) fusion proteins; purchased
Briefly: TRa-coa LanthaScreen TR-FRET coactivator (SRC-2 peptide) recruitment, agonist (TOX21_TRA_COA_Agonist_Followup_ratio, aeid 2230). Format: biochemical. To be noted: for AC50: cell-free coactivator recruitment, read-out: TRa-coa-Ag AC50; for TRa-coa hitc: hit call from tcpl, agonist; for Emax: read-out: EMax (% of Control) tra-coa-agonist-followup-1. For orientation: In TR-FRET formats the signal depends on donor and acceptor labels being close together.

In series [8] the test system is thyroid hormone receptor (TR). Briefly: Classification of TR actives across characterization assays (TR-Ag / RXR-Ag; TR model binary). To be noted: for Categorization Code: TR agonist characterization; for Classification: TR-Ag = TR agonist, RXR-Ag = RXR agonist. An outline of the steps:
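GH3-TRE qHTS agonist, antagonist and viability modes over 8,305 compounds; 84 candidates rescreened in GH3-TRE-Ag, TRβ- and RXRα-UAS-bla HEK 293T one-hybrid assays, HEK293T viability, and TRα/TRβ coactivator recruitment. Actives classified binary after removing pharmaceuticals.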

For a further series, the system named is GH3-TRE-Luc cell line. To be noted: rat, 24 h.
Series [9] concerns the target T2, human TRβ ligand-binding domain (Homo sapiens, UniProt P10828).
T2 sequence (P10828 217-461 limits assumed): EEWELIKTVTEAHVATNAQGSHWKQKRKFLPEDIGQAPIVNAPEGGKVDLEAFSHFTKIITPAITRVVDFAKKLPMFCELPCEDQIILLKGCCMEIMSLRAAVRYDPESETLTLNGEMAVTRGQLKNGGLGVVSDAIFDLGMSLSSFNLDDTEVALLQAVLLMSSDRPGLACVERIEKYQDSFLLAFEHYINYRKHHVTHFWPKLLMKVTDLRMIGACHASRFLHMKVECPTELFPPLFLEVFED
Briefly: TRb-bla agonist mammalian one-hybrid beta-lactamase assay (TOX21_TRB_BLA_Agonist_Followup_ratio, aeid 2236). The class given is cell-based. The arrangement: host or cells: GeneBLAzer UAS-bla HEK 293T. To be noted: for TRb-bla hitc: hit call from tcpl, agonist; for Emax: read-out: EMax (% of Control) trb-bla-agonist-followup-1.

The target of series [10] is T2, human TRβ ligand-binding domain. Briefly: TRb-coa LanthaScreen TR-FRET coactivator (SRC-2 peptide) recruitment, agonist (TOX21_TRB_COA_Agonist_Followup_ratio, aeid 2244). The class given is biochemical. The arrangement: host or cells: GeneBLAzer UAS-bla HEK 293T. To be noted: for AC50: cell-free coactivator recruitment, read-out: TRb-coa-Ag AC50; for TRb-coa hitc: hit call from tcpl, agonist; for Emax: read-out: EMax (% of Control) trb-coa-agonist-followup-1.

Where [11] appears, read: antagonist candidates, inactive samples arbitrarily set to AC50=1,000 μM.
Where [12] appears, read: median over 18 Tox21 cell viability assays, inactive set to 1,000.
The mark [13] stands for this setting: median over 18 Tox21 cell viability assays (Judson et al. 2016, invitrodb_v2).

Molecules are shown by their SMILES. Read-outs that look alike come from different tables or passages of the source. Bounds are passed on as bounds.

T1 sequence (P10827 163-410 isoform P10827-2 limits assumed, other chains not shown): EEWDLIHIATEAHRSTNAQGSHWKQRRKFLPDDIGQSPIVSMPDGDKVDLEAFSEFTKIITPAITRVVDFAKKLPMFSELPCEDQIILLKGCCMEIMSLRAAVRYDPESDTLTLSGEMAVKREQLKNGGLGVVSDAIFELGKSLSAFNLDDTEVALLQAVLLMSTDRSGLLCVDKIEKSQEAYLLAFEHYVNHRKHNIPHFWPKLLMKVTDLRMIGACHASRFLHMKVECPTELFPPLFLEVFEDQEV

As for `Cc1ccc2c(Cl)cc(Cl)c(O)c2n1` [5,7-Dichloro-8-hydroxy-2-methylquinoline], the AC50 in series [1] (setting [11]) was more than 92 µM; in [2] it was 1.5 µM; in series [3] (setting [12]), 13.6 µM. For the same molecule, in series [4] (percentage of 18 Tox21 viability assays with hitc=1), the “Active in global cytotoxicity assays (%)” value came out at 13.6%. The same molecule showed an AC50 at 24 h in series [5] of 1.56 µM.
With `CC1=C(/C=C/C(C)=C/C=C/C(C)=C\C(=O)O)C(C)(C)CCC1` [13-cis Retinoic acid, reference compound], in [1], the “EMax (% of Control) gh3-tre-agonist” value is listed as 29.3 % of Control, the “activity in GH3-TRE agonist assay” value was “partial agonist” and the “GH3-TRE-Ag AC50 hitc” value was determined as 1. Further, the “EMax in GH3-TRE-Ag assay” value in series [1] (percent of positive control T3) is listed as 24 % of control. Moreover, in series [6], the “EMax (% of Control) gh3-tre-agonist-followup-1_agonist” value is listed as 46.3 % of Control, the AC50 was determined as 0.0348 µM and the GH3-TRE-Ag-Followup hitc came out at 1. Besides, in series [7], the AC50 was more than 92 µM, the TRa-coa hitc amounted to 0 and the Emax is -0.319%. In addition, the AC50 in [3] (setting [13]) is 46.3 µM. For the same molecule, in series [4], the “GLOBAL CYTOTOXICITY cytotox.median” value worked out at 46.3 and the “GLOBAL CYTOTOXICITY cytotox.number_Active” value is 5. For the same molecule, in [8], the “Categorization Code” value is reported as “RXR-Ag” and the Classification result is given as “RXR-Ag”. In the series on GH3-TRE-Luc cell line, this molecule came in with a TR_LUC_GH3_Antagonist_viability hitc of 1. In addition, in [9], the “activity in TRβ-bla as agonist” value is given as “not active”, the TRb-bla hitc is reported as 0 and the Emax stood at 6.8%. The AC50 in [9] (HEK 293T one-hybrid, agonist mode, read-out: TRb-bla-Ag AC50) was more than 92 µM. For the same molecule, in [10], the “activity in TRb-coa biochemical assay” value is on record as “not active”, the AC50 is more than 92 µM, the TRb-coa hitc was 0 and the Emax is -0.0945%. The molecule further gave an AC50 at 24 h in series [5] of 81.3 µM.
`Nc1nc(F)nc2c1ncn2[C@@H]1O[C@H](CO)[C@@H](O)[C@@H]1O` [Fludarabine, reference compound]: the AC50 is more than 92 µM in series [1] (setting [11]), 16.3 µM in series [2] and more than 92 µM in [3] (setting [12]). Moreover, the “Active in global cytotoxicity assays (%)” value in series [4] is on record as 1.7%. In [5], this molecule yielded an AC50 at 24 h of 22.3 µM.
As to `CC1=C(/C=C/C(C)=C/C=C/C(C)=C/C(=O)O)C(C)(C)CCC1` [all trans-Retinoic acid, reference compound], in [1], the “EMax (% of Control) gh3-tre-agonist” value was 29.3 % of Control and the “GH3-TRE-Ag AC50 hitc” value turned out to be 1. Besides, the half-maximal activity concentration (AC50) in series [1] (primary qHTS, agonist mode, 24 h, top concentration 92 μM) came out at 0.234 µM. For the same molecule, in [6], the “EMax (% of Control) gh3-tre-agonist-followup-1_agonist” value was 97.2 % of Control, the AC50 was 1.16 µM and the GH3-TRE-Ag-Followup hitc came out at 1. For the same molecule, in series [7], the AC50 is more than 92 µM, the TRa-coa hitc is given as 0 and the Emax was -0.347%. Besides, the AC50 in series [3] (setting [13]) is more than 92 µM. Also, the “GLOBAL CYTOTOXICITY cytotox.number_Active” value in [4] came to 0. In addition, the “GLOBAL CYTOTOXICITY cytotox.median” value in [4] (median over Tox21 viability assays) is on record as more than 92. In series [8], the “Categorization Code” value is given as “RXR-Ag” and the Classification result was “RXR-Ag”. This molecule showed a TR_LUC_GH3_Antagonist_viability hitc in the series with GH3-TRE-Luc cell line of 1. Further, in series [9], the TRb-bla hitc worked out at 1 and the Emax came out at 31.1%. Moreover, in [10], the AC50 was more than 92 µM, the TRb-coa hitc was found to be 0 and the Emax was 0%. Moreover, in [5], the AC50 at 24 h was found to be 66.7 µM.

In general, AC50 refers to the concentration at which the activity in the assay is half-maximal. A word on the Emax: it is the greatest response seen or fitted, relative to the assay's reference.
